Laboratory results as given in paper PMC10442672, “Synthesis of amantadine clubbed N-aryl amino thiazoles as potent urease, α-amylase & α-glucosidase inhibitors, kinetic and molecular docking studies” (RSC Advances, 2023).
≈ marks a conversion by molar mass, not a printed value. Where “and” joins values, the source holds several entries; their conditions need not be identical. Equal entries are not always repeated.

Legend:
[1] = DPPH assay (antioxidant potential); details: DPPH 100 μM; 30 minutes at 37 °C; triplicate
Description: DPPH assay as reported earlier was used to determine the antioxidant potential of newly synthesised compound.[46] For experiment, […] (100 μM) solution was mixed with 5 μl of sample compounds and ascorbic acid (positive control) at concentration of 100, 50 and 25 μM in 96-well plate respectively. Plate was incubated in dark for 30 minutes at 37 °C and then absorbance was measured at 515 nm using Elx800 microtiter plate reader. The experiment was performed in triplicate and percentage scavenging was calculated as following:Percentage scavenging (%) = [1 − absorbance of sample/absorbance of control] × 100

Bacillus subtilis = experiment: Antibacterial disc diffusion assay; type: cell-based; details: for MIC / zone of inhibition at 100 µM: Bacillus subtilis
Description: (§1) Anti-bactericidal activity of the compounds was determined by using disc diffusion method. […] The assay was performed in triplicate and Kanamycin was used as positive control. […] According to Yildiz et al.[39] the antibacterial activity of a substitution connected to a biologically active molecule may be increased.
(§2) Disc diffusion assay was used to determine the antibacterial potential of newly synthesised compounds as reported earlier.[45] For experiment, 1% inoculum of Bacillus subtilis, Staphylococcus aureus, Escherichia coli and Pseudomonas aeruginosa was transferred to autoclaved nutrient agar media (23 g l^−1) respectively. Then media were poured in respective plates and allowed to solidify. Samples (100 μM) and Kanamycin drug (10 μM) was loaded on sterile paper disc (5 mm) and these discs were placed on Petriplates at appropriate distance. Plates were incubated for 24 hours at 37 °C and zone of inhibition were measured using Vernier calliper.

Escherichia coli = experiment: Antibacterial disc diffusion assay; type: cell-based
Description: as §1, §2

Pseudomonas aeruginosa = experiment: Antibacterial disc diffusion assay; type: cell-based
Description: as §1, §2

Staphylococcus aureus = experiment: Antibacterial disc diffusion assay; type: cell-based
Description: as §1, §2

α-amylase = type: biochemical; details: starch substrate; pH 6.8; 30 minutes at 50 °C; triplicate
Description: α-Amylase inhibition assay was performed to calculate the enzyme inhibition potential of newly synthesised compounds.[48] […] In blank 40 μl starch and 50 μl phosphate buffer was added. […] Then absorbance was measured at 540 nm using Elx800 microtiter plate reader.

[2] = test system: Bacillus subtilis, Staphylococcus aureus, Escherichia coli and Pseudomonas aeruginosa; experiment: Antibacterial disc diffusion assay, all four tested strains; type: cell-based
Description: as §1, §2

urease = urease (Canavalia ensiformis, UniProt P07374); details: read-out: Urease IC50; 100 mM urea; pH 8.2; 37 °C; triplicate
[3] = disc diffusion, samples 100 μM, Kanamycin 10 μM on disc, 24 hours at 37 °C

Sequence of urease (P07374 whole entry, looked up, the tested form may be a part): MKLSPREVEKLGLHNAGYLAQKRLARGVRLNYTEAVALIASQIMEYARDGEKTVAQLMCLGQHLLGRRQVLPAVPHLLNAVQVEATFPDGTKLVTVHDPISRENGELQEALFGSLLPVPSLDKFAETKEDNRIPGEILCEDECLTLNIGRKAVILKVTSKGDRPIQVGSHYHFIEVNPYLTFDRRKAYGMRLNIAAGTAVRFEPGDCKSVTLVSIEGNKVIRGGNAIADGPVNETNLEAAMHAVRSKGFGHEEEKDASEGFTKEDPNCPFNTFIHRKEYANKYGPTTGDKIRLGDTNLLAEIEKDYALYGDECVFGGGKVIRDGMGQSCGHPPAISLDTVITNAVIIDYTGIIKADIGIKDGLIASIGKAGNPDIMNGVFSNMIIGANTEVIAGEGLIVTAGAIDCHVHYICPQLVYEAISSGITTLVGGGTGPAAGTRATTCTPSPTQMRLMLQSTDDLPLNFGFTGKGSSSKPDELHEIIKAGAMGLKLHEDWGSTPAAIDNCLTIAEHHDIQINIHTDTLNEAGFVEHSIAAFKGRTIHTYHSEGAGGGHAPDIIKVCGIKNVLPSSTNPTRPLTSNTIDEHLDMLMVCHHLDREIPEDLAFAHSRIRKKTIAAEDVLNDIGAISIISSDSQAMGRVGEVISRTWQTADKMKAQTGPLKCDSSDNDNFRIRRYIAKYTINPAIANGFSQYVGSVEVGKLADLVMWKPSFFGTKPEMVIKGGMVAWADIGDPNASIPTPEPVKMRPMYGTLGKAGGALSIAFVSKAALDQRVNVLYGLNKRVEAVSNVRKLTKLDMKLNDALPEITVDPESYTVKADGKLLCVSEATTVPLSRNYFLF

Question: For `O=C1O[C@H]([C@@H](O)CO)C(O)=C1O` [Ascorbic acid, reference compound], which IC50 [1] is on record?
Answer: Its IC50 is 0.892 µM and 0.89 µM.

Question: Which MIC (Bacillus subtilis) does the source give for `Cc1nc(N)sc1C(=O)NC12CC3CC(CC(C3)C1)C2` [Compound 6a, N-(Adamantan-1-yl)-2-amino-4-methylthiazole-5-carboxamide] here?
Answer: Its MIC is 50 µM (≈ 14.6 µg/mL).

Question: And the zone of inhibition at 100 µM (Bacillus subtilis; [3])?
Answer: Its zone of inhibition at 100 µM is 13 mm.

Question: And the MIC (Escherichia coli; Escherichia coli)?
Answer: The MIC was 50 µM (≈ 14.6 µg/mL).

Question: And the zone of inhibition at 100 µM (Escherichia coli; Escherichia coli, disc diffusion, samples 100 μM, Kanamycin 10 μM on disc, 24 hours at 37 °C)?
Answer: The zone of inhibition at 100 µM was 11 mm.

Question: What about the MIC (Pseudomonas aeruginosa; Pseudomonas aeruginosa) of the same molecule?
Answer: The MIC was 50 µM (≈ 14.6 µg/mL).

Question: What about the zone of inhibition at 100 µM (Pseudomonas aeruginosa; Pseudomonas aeruginosa, disc diffusion, samples 100 μM, Kanamycin 10 μM on disc, 24 hours at 37 °C) of the same molecule?
Answer: The zone of inhibition at 100 µM was 10 mm.

Question: And the MIC (Staphylococcus aureus; Staphylococcus aureus)?
Answer: Its MIC is 75 µM (≈ 21.9 µg/mL).

Question: And the zone of inhibition at 100 µM (Staphylococcus aureus; Staphylococcus aureus, disc diffusion, samples 100 μM, Kanamycin 10 μM on disc, 24 hours at 37 °C)?
Answer: The zone of inhibition at 100 µM was 8 mm.

Question: And the IC50 [1]?
Answer: Its IC50 is 157 ± 10.3 µM.

Question: What about the IC50 (α-amylase) of the same molecule?
Answer: Its IC50 is 118.3 ± 0.71 µM.

Question: And the “antibacterial activity against tested bacterial strains” value (“antibacterial activity” below) [2]?
Answer: Its value is “significant antibacterial activity”.

Question: What about the melting point of the same molecule?
Answer: Its melting point is 256 to 257 °C.

Question: Which IC50 [1] does the source give for `Cc1nc(Nc2ccc([N+](=O)[O-])cc2)sc1C(=O)NC12CC3CC(CC(C3)C1)C2` [Compound 6b, N-(Adamantan-1-yl)-4-methyl-2-((4-nitrophenyl)amino)thiazole-5-carboxamide] here?
Answer: Its IC50 is 108 ± 1.93 µM.

Question: What about the IC50 (α-amylase) of the same molecule?
Answer: Its IC50 is over 100 µM.

Question: What about the “antibacterial activity” value [2] of the same molecule?
Answer: The value was “no antibacterial activity”.

Question: And the melting point?
Answer: Its melting point is 300 to 303 °C.

Question: Which results are given for `Cc1nc(Nc2ccc(Br)cc2)sc1C(=O)NC12CC3CC(CC(C3)C1)C2` [Compound 6c, N-(Adamantan-1-yl)-4-methyl-2-((4-bromophenyl)amino)thiazole-5-carboxamide]?
Answer: MIC (Bacillus subtilis): 75 µM (≈ 33.5 µg/mL); zone of inhibition at 100 µM (Bacillus subtilis; [3]): 7 mm; IC50 [1]: 126 ± 2.66 µM; IC50 (α-amylase): > 100 µM; antibacterial activity against tested bacterial strains [2]: activity against one bacterial strain out of four; melting point: 277 to 280 °C

Question: With `COc1ccc(Nc2nc(C)c(C(=O)NC34CC5CC(CC(C5)C3)C4)s2)cc1` [Compound 6d, N-(Adamantan-1-yl)-4-methyl-2-((4-methoxyphenyl)amino)thiazole-5-carboxamide] as the molecule, how does the IC50 [1] read?
Answer: Its IC50 is 19.2 ± 0.37 µM.

Question: And the IC50 (α-amylase)?
Answer: The IC50 was 97.4 ± 1.53 µM.

Question: What about the “antibacterial activity” value [2] of the same molecule?
Answer: The value was “no antibacterial activity”.

Question: What about the melting point of the same molecule?
Answer: The melting point was 226 to 229 °C.

Question: With `COc1ccccc1Nc1nc(C)c(C(=O)NC23CC4CC(CC(C4)C2)C3)s1` [Compound 6e, N-(Adamantan-1-yl)-4-methyl-2-((2-methoxyphenyl)amino)thiazole-5-carboxamide] as the molecule, how does the IC50 [1] read?
Answer: Its IC50 is 110.3 ± 0.76 µM.

Question: What about the IC50 (α-amylase) of the same molecule?
Answer: The IC50 was over 100 µM.

Question: What about the “α-Amylase IC50” value (α-amylase) of the same molecule?
Answer: Its value is “inactive”.

Question: And the “antibacterial activity” value [2]?
Answer: The value was “no antibacterial activity”.

Question: And the melting point?
Answer: Its melting point is 210 to 212 °C.

Question: Which results are given for `Cc1nc(Nc2cccc(Cl)c2)sc1C(=O)NC12CC3CC(CC(C3)C1)C2` [Compound 6f, N-(Adamantan-1-yl)-4-methyl-2-((3-chlorophenyl)amino)thiazole-5-carboxamide]?
Answer: IC50 [1]: 136.7 ± 1.33 µM; IC50 (α-amylase): > 100 µM; antibacterial activity against tested bacterial strains [2]: no antibacterial activity; melting point: 253 to 254 °C

Question: Which MIC (Bacillus subtilis) does the source give for `Cc1nc(Nc2ccccc2Cl)sc1C(=O)NC12CC3CC(CC(C3)C1)C2` [Compound 6g, N-(Adamantan-1-yl)-4-methyl-2-((2-chlorophenyl)amino)thiazole-5-carboxamide] here?
Answer: The MIC was 75 µM (≈ 30.1 µg/mL).

Question: And the zone of inhibition at 100 µM (Bacillus subtilis; [3])?
Answer: Its zone of inhibition at 100 µM is 7 mm.

Question: What about the IC50 [1] of the same molecule?
Answer: The IC50 was 122 ± 6.54 µM.

Question: And the IC50 (α-amylase)?
Answer: Its IC50 is over 100 µM.

Question: What about the “antibacterial activity” value [2] of the same molecule?
Answer: The value was “activity against one bacterial strain out of four”.

Question: What about the melting point of the same molecule?
Answer: Its melting point is 202 to 203 °C.

Question: What does the source list for `Cc1nc(Nc2ccc(NS(C)(=O)=O)c(Oc3ccccc3)c2)sc1C(=O)NC12CC3CC(CC(C3)C1)C2` [Compound 6h, N-Adamantyl-4-methyl-2-((4-(methylsulfonamido)-3-phenoxyphenyl)amino) thiazole-5-carboxamide]?
Answer: IC50 [1]: 64.1 ± 0.71 µM; IC50 (α-amylase): > 100 µM; melting point: 156 to 160 °C

Question: With `Cc1nc(Nc2cccc(F)c2)sc1C(=O)NC12CC3CC(CC(C3)C1)C2` [Compound 6i, N-Adamantyl-2-((3-fluorophenyl)amino)-4-methylthiazole-5-carboxamide] as the molecule, how does the IC50 [1] read?
Answer: The IC50 was 131 ± 1.11 µM.

Question: What about the IC50 (α-amylase) of the same molecule?
Answer: The IC50 was over 100 µM.

Question: And the melting point?
Answer: The melting point was 220 to 225 °C.

Question: What does the source list for `Cc1nc(NC23CC4CC(CC(C4)C2)C3)sc1C(=O)NC12CC3CC(CC(C3)C1)C2` [Compound 6j, N-Adamantanyl-2-(((3s,5s,7s)-adamantan-1-yl)amino)-4-methylthiazole-5-carboxamide]?
Answer: IC50 [1]: 137.9 ± 0.9 µM; IC50 (α-amylase): > 100 µM; melting point: 250 to 253 °C

Question: For `NC[C@H]1O[C@H](O[C@H]2[C@H](O)[C@@H](O[C@H]3O[C@H](CO)[C@@H](O)[C@H](N)[C@H]3O)[C@H](N)C[C@@H]2N)[C@H](O)[C@@H](O)[C@@H]1O` [Kanamycin, reference compound], which “MIC Bacillus subtilis” value (Bacillus subtilis) is on record?
Answer: Its value is “MIC = 25 μM”.

Question: What about the “Antibacterial zone of inhibition Bacillus subtilis” value (Bacillus subtilis; [3]) of the same molecule?
Answer: Its value is 21 mm.

Question: And the “MIC Escherichia coli” value (Escherichia coli)?
Answer: Its value is “MIC = 25 μM”.

Question: And the “Antibacterial zone of inhibition Escherichia coli” value (Escherichia coli; [3])?
Answer: Its value is 20 mm.

Question: And the “MIC Pseudomonas aeruginosa” value (Pseudomonas aeruginosa)?
Answer: The value was “MIC = 20 μM”.

Question: And the “Antibacterial zone of inhibition Pseudomonas aeruginosa” value (Pseudomonas aeruginosa; [3])?
Answer: The value was 22 mm.

Question: And the “MIC Staphylococcus aureus” value (Staphylococcus aureus)?
Answer: Its value is “MIC = 20 μM”.

Question: What about the “Antibacterial zone of inhibition Staphylococcus aureus” value (Staphylococcus aureus; [3]) of the same molecule?
Answer: Its value is 24 mm.

Question: Which IC50 (urease) does the source give for `NC(N)=S` [Thiourea] here?
Answer: The IC50 was 1.33 µM.
